Measured values reported in patent EP4385495A1, “NANOSYSTEMS FOR THE ENCAPSULATION OF THERAPEUTIC AGENTS” (National Technical University of Athens, priority 2022, dated 2024).

Experiments:
[1] = test system: experimental animal model of osteoarthritis (OA); experiment: Knee diameter (digital caliper) and gross observations in collagenase-induced osteoarthritis rat model; type: in vivo, Wistar rats; details: for Right knee diameter: collagenase-injected knee; for Left knee diameter: untreated control knee
Experimental: In order to understand the anti-inflammatory and antioxidant potential of the nanoparticles of the invention in vivo an experimental animal model of osteoarthritis (OA) was established. The OA lesions were caused by matrix degradation of articular cartilage using enzymatic means, such as collagenase type-II. Following the induction of osteoarthritis, the studied nanoparticles were administered for 8 weeks in which period the morphological and behavioral changes were measured and finally histological analysis of the articular cartilage samples concluded the in vivo study.
Healthy adult male Wistar rats (150-200 g) were used for the study, with water and food ad libitum, at a constant temperature of 22°C and controlled lighting (12 h light/12 h dark cycle).
As far as the dispersion procedure of the injectables is concerned, all the natural compounds were dissolved in saline solution, whereas the studied nanoparticles were mechanically grinded in a mortar and pestle set with saline solution and Tween 20 (2% w/v) and heated at 36 °C before each treatment. There were six treatments administered every 10 days. At the end of the experiment rats were euthanized and both knees were collected for histological analysis.
Rats were anesthetized with chloral hydrate. The right knee joints of Group I were injected with normal saline solution and served as a control. Animals from the groups II, III, IV, V, VI, VII were injected with collagenase type II (Clostridium histolyticum). Collagenase (125 collagen digestion unit/mg) was dissolved in saline, and it was injected intra-articularly into the right knee joint twice on days 1 and 4 of the experiment (Al-Saffar, F., H. Ganabadi and S. Fakurazi. Collagenase and sodium iodoacetate-induced experimental osteoarthritis model in Sprague dawley rats. Asian J. Sci. Res. 2: 1-13, 2009). The left knees of all animals were left untreated as a control.
Changes in body weight and knee diameter were measured on the 1st, 4th,11th,21st,31st,41st,51st, 61st, 71st day before every injection. Knee diameter was measured using a digital caliper. […] A change in body weight is also measured as one of the parameters to assess the course of the disease in the OA animal models.

[2] = target: T1, soybean lipoxygenase (LOX) (Glycine max, UniProt P08170); experiment: Soybean lipoxygenase inhibition assay in vitro; type: biochemical
T1 sequence (P08170 1-839): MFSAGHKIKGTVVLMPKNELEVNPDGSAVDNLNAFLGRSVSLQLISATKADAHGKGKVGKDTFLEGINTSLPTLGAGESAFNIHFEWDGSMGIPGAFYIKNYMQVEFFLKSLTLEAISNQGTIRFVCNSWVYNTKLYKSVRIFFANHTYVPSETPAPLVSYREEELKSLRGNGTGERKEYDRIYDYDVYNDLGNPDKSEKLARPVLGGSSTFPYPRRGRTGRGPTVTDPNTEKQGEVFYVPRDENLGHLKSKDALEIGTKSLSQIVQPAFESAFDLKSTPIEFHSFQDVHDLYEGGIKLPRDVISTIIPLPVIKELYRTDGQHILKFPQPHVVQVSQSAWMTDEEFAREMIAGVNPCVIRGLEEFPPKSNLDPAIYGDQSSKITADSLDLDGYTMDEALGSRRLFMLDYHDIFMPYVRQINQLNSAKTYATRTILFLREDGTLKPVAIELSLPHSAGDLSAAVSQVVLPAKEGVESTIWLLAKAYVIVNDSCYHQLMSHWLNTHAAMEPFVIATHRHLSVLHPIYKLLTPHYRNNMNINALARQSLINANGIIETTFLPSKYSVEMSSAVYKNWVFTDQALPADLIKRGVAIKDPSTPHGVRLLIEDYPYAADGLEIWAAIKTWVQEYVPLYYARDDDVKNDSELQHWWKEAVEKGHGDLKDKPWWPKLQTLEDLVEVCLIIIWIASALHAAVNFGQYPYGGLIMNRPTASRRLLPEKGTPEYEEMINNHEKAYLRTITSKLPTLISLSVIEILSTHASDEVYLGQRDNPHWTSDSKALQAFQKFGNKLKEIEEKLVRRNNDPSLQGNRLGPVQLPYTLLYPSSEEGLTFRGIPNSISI
Experimental: The soybean lipoxygenase (LOX) test is a representative assay for anti-inflammatory activity since LOX is implicated in the inflammatory cascade. LOXs contain a "non-heme" iron per molecule in the catalytic active site as high-spin Fe^+2 in the native state and high-spin Fe^+3 in the activated state. […] The inhibitory activity of several LOX inhibitors, such as phenolic derivatives, can be attributed to their chelating capacity to Fe^+3. In brief, two reaction mixtures are prepared in UV cuvettes for each sample, the first reaction mixture contains LOX solution (dissolved in Tris buffer, pH 9) and the sample under examination, whereas the second reaction mixture also contained LLA solution (dissolved in 0.9% NaCl). Both reaction mixtures were measured at room temperature at 234 nm. The inhibition of LOX was measured in the presence of the same level of DMSO, which served as control.
Table 2: Anti-inflammatory potential of the samples expressed as % inhibition of LOX

[3] = test system: RAW264.7 cells; experiment: MTT cell viability assay; type: cell-based, mouse; details: for % cell viability: 24h
Text: The MTT (3-[4,5-dimethylthiazol-2-yl]-2,5 diphenyl tetrazolium bromide) assay is based on the ability of viable cells with active metabolism to convert the yellow MTT to a purple formazan product, which determines mitochondrial activity. The MTT formazan product agglomerates as an insoluble residuum within the cells, which can be solubilized (in this protocol with DMSO) for homogeneous measurement. Thus, any increase or decrease in the number of viable cells can be detected by measuring the formazan concentration reflected in the optical density (OD) measurement at 540 nm with a reference absorption of 720 nm. This assay is broadly used to measure the in vitro cytotoxic effects of drugs on cell lines or primary cells. For the experimental procedure a standard solution of MTT 1mg/mL in PBS was prepared which after filtration ([…] filter (Millipore, Carrigtwohill, Ireland)) was stored in the dark (4-8 °C) until use. In brief, RAW 264.7 cells were seeded in a 96-well plate at a density of 30.000 cells/ in 100 µL of medium per well. […] This was followed by incubation for 24 h, 48 h and 72 h. At the end of the incubation 10 µL of MTT was added to each well followed by incubation for 4 hours, for the formation of the formazan crystals. The formazan crystals were then dissolved by adding DMSO and stirring lightly for 30 min, after which the absorbance was measured in a plate reader at 540 nm with a reference absorbance of 720 nm. […] Table 4: % cell viability after treatment of RAW264.7 cells with the samples

[4] = 40 days (half of experimental protocol)
[5] = 70 days (end of experimental protocol)

In the case of `C[C@@H]1O[C@@H](O[C@H]2[C@H](Oc3cc(O)c4c(c3)O[C@H](c3ccc(O)cc3)CC4=O)O[C@H](CO)[C@@H](O)[C@@H]2O)[C@H](O)[C@H](O)[C@H]1O` [S1 [NAR], Naringin], the “% Changes in Left knee diameter” value ([1]; 11 days (before treatment)) is reported as 0,26%, the “% Changes in Right knee diameter” value ([1]; 11 days (before treatment)) is reported as 4,14% and the “% Changes in Left knee diameter” value [1, 4] is reported as 0,79%. The “% Changes in Right knee diameter” value [1, 4] was 3,25%, the “% Changes in Left knee diameter” value [1, 5] was 0,84% and the “% Changes in Right knee diameter” value [1, 5] was 2,35%. The Right knee diameter ([1]; 1st injection CO/saline (before treatment)) was 0,85 cm, the Right knee diameter ([1]; 1st treatment, 10 mg/kg (S1, ibuprofen i.p.; nanoparticles i.a.)) was 0,8852 cm and the Right knee diameter ([1]; 2nd injection CO/saline (before treatment)) was 0,882 cm. For the same compound, the Right knee diameter ([1]; 3rd treatment) was 0,9 cm, the Right knee diameter ([1]; 4th treatment) was 0,8776 cm and the Right knee diameter ([1]; 5th treatment) was 0,8712 cm. The Right knee diameter ([1]; 6th treatment) was 0,87 cm, the Right knee diameter ([1]; final) was 0,87 cm and the Left knee diameter ([1]; 1st injection CO/saline) was 0,8572 cm. For the same compound, the Left knee diameter ([1]; 1st treatment) was 0,8594 cm, the Left knee diameter ([1]; 2nd injection CO/saline) was 0,858 cm and the Left knee diameter ([1]; 4th treatment) was 0,864 cm. For the same compound, the Left knee diameter ([1]; final) was 0,8644 cm, the inhibition at 25 µM ([2]; 25 µM, 24h) was 7.1% and the inhibition at 50 µM ([2]; 50 µM, 24h) was 21.2%. For the same compound, the inhibition at 100 µM ([2]; 100 µM, 24h) was 44.6%, the “LOX inhibition at 48 and 72 h compared with 24 h (in words)” value ([2]; 48 and 72 h) was “no significant difference” and the “% cell viability” value ([3]; 25 µM) was 100%. The “% cell viability” value ([3]; 50 µM) was 100% and the “cytotoxicity / cell viability (in words)” value ([3]; lower concentrations) was “full cell viability”.
